Species on record: Rattus norvegicus
Test: DrugMatrix - Regimen: Daily Repeat
Assay type: toxicity, organism-based, Sprague-Dawley
Parameters: regimen Daily Repeat, gender Male, age 6-8 weeks
Conditions: in vivo, po, route oral GAVAGE, vehicle .5 % CMC; for ABSOLUTE BASOPHIL / ABSOLUTE EOSINOPHIL / ABSOLUTE LYMPHOCYTE / ABSOLUTE MONOCYTE / ABSOLUTE SEGMENTED NEUTROPHIL / BASOPHIL / EOSINOPHIL / ERYTHROCYTE COUNT / HEMATOCRIT / HEMOGLOBIN / LEUKOCYTE COUNT / LYMPHOCYTE / MEAN CORPUSCULAR HEMOGLOBIN / MEAN CORPUSCULAR HEMOGLOBIN CONCENTRATION / MEAN CORPUSCULAR VOLUME / MONOCYTE / NEUTROPHIL / NUCLEATED RED BLOOD CELLS / PLATELET COUNT: tissue Blood; for ALANINE AMINOTRANSFERASE / ALBUMIN / ALKALINE PHOSPHATASE / ASPARTATE AMINOTRANSFERASE / BLOOD UREA NITROGEN / CARBON DIOXIDE / CHLORIDE / CHOLESTEROL / CREATINE PHOSPHOKINASE / CREATININE / GLUCOSE / LACTATE DEHYDROGENASE / LIPASE / PHOSPHORUS / POTASSIUM / SODIUM / TOTAL BILIRUBIN / TOTAL PROTEIN / URIC ACID: tissue Plasma
[1] = 10 mg/kg, 72 h, dose level Low, time 3 day
[2] = 10 mg/kg, 120 h, dose level Low, time 5 day
[3] = 350 mg/kg, 72 h, dose level High, time 3 day

## CCC1(c2ccc(N)cc2)CCC(=O)NC1=O (centres undefined) [AMINOGLUTETHIMIDE]
[1]
  ABSOLUTE BASOPHIL: 0 CELLS/uL
  ABSOLUTE EOSINOPHIL: 0 CELLS/uL
  ABSOLUTE LYMPHOCYTE: 11710.67 CELLS/uL
  ABSOLUTE MONOCYTE: 267.33 CELLS/uL
  ABSOLUTE SEGMENTED NEUTROPHIL: 2622 CELLS/uL
  BASOPHIL: 0%
  EOSINOPHIL: 0%
  ERYTHROCYTE COUNT: 5.37 x10E6/uL
  HEMATOCRIT: 34.23%
  HEMOGLOBIN: 13.47 G/DL
  LEUKOCYTE COUNT: 14.6 x10E3/uL
  LYMPHOCYTE: 80.33%
  MEAN CORPUSCULAR HEMOGLOBIN: 25.1 pg
  MEAN CORPUSCULAR HEMOGLOBIN CONCENTRATION: 39.33 G/DL
  MEAN CORPUSCULAR VOLUME: 63.77 fL
  MONOCYTE: 1.67%
  NEUTROPHIL: 18%
  NUCLEATED RED BLOOD CELLS: 0 /100WBC
  PLATELET COUNT: 1364.33 x10E3/uL
  ALANINE AMINOTRANSFERASE: 54.67 u/L
  ALBUMIN: 4.07 G/DL
  ALKALINE PHOSPHATASE: 367 u/L
  ASPARTATE AMINOTRANSFERASE: 87.33 u/L
  BLOOD UREA NITROGEN: 17 mg/dL
  CARBON DIOXIDE: 26 mmol/L
  CHLORIDE: 102 MEQ/L
  CHOLESTEROL: 69.33 mg/dL
  CREATINE PHOSPHOKINASE: 357.33 u/L
  CREATININE: 0.16 mg/dL
  GLUCOSE: 160 mg/dL
  LACTATE DEHYDROGENASE: 241.67 u/L
  LIPASE: 9.33 u/L
  PHOSPHORUS: 13 mg/dL
  POTASSIUM: 6.52 MEQ/L
  SODIUM: 143.27 MEQ/L
  TOTAL BILIRUBIN: 0.2 mg/dL
  TOTAL PROTEIN: 5.67 G/DL
  URIC ACID: 1.83 mg/dL
[2]
  ABSOLUTE BASOPHIL: 0 CELLS/uL
  ABSOLUTE EOSINOPHIL: 0 CELLS/uL
  ABSOLUTE LYMPHOCYTE: 14655 CELLS/uL
  ABSOLUTE MONOCYTE: 54.33 CELLS/uL
  ABSOLUTE SEGMENTED NEUTROPHIL: 1457.33 CELLS/uL
  BASOPHIL: 0%
  EOSINOPHIL: 0%
  ERYTHROCYTE COUNT: 5.82 x10E6/uL
  HEMATOCRIT: 35.6%
  HEMOGLOBIN: 14.1 G/DL
  LEUKOCYTE COUNT: 16.17 x10E3/uL
  LYMPHOCYTE: 90.67%
  MEAN CORPUSCULAR HEMOGLOBIN: 24.23 pg
  MEAN CORPUSCULAR HEMOGLOBIN CONCENTRATION: 39.67 G/DL
  MEAN CORPUSCULAR VOLUME: 61.17 fL
  MONOCYTE: 0.33%
  NEUTROPHIL: 9%
  NUCLEATED RED BLOOD CELLS: 0 /100WBC
  PLATELET COUNT: 1044 x10E3/uL
  ALANINE AMINOTRANSFERASE: 56 u/L
  ALBUMIN: 4.33 G/DL
  ALKALINE PHOSPHATASE: 463 u/L
  ASPARTATE AMINOTRANSFERASE: 91.67 u/L
  BLOOD UREA NITROGEN: 16.67 mg/dL
  CARBON DIOXIDE: 27 mmol/L
  CHLORIDE: 100 MEQ/L
  CHOLESTEROL: 67 mg/dL
  CREATINE PHOSPHOKINASE: 282 u/L
  CREATININE: 0.2 mg/dL
  GLUCOSE: 155.67 mg/dL
  LACTATE DEHYDROGENASE: 347.67 u/L
  LIPASE: 12.33 u/L
  PHOSPHORUS: 11.8 mg/dL
  POTASSIUM: 6.27 MEQ/L
  SODIUM: 142.47 MEQ/L
  TOTAL BILIRUBIN: 0.17 mg/dL
  TOTAL PROTEIN: 5.87 G/DL
  URIC ACID: 1.8 mg/dL
[3]
  ABSOLUTE BASOPHIL: 0 CELLS/uL
  ABSOLUTE EOSINOPHIL: 0 CELLS/uL
  ABSOLUTE LYMPHOCYTE: 12308.33 CELLS/uL
  ABSOLUTE MONOCYTE: 135 CELLS/uL
  ABSOLUTE SEGMENTED NEUTROPHIL: 1890 CELLS/uL
  BASOPHIL: 0%
  EOSINOPHIL: 0%
  ERYTHROCYTE COUNT: 6.41 x10E6/uL
  HEMATOCRIT: 37.93%
  HEMOGLOBIN: 15.13 G/DL
  LEUKOCYTE COUNT: 14.33 x10E3/uL
  LYMPHOCYTE: 84.67%
  MEAN CORPUSCULAR HEMOGLOBIN: 23.57 pg
  MEAN CORPUSCULAR HEMOGLOBIN CONCENTRATION: 39.87 G/DL
  MEAN CORPUSCULAR VOLUME: 59.1 fL
  MONOCYTE: 1%
  NEUTROPHIL: 14.33%
  NUCLEATED RED BLOOD CELLS: 0 /100WBC
  PLATELET COUNT: 1180.67 x10E3/uL
  ALANINE AMINOTRANSFERASE: 78.33 u/L
  ALBUMIN: 3.73 G/DL
  ALKALINE PHOSPHATASE: 251.67 u/L
  ASPARTATE AMINOTRANSFERASE: 137.67 u/L
  BLOOD UREA NITROGEN: 12 mg/dL
  CARBON DIOXIDE: 27.33 mmol/L
  CHLORIDE: 100 MEQ/L
  CHOLESTEROL: 103.67 mg/dL
  CREATINE PHOSPHOKINASE: 398 u/L
  CREATININE: 0.14 mg/dL
  GLUCOSE: 120 mg/dL
  LACTATE DEHYDROGENASE: 202.67 u/L
  LIPASE: 10.33 u/L
  PHOSPHORUS: 12.03 mg/dL
  POTASSIUM: 5.62 MEQ/L
  SODIUM: 144.37 MEQ/L
  TOTAL BILIRUBIN: 0.13 mg/dL
  TOTAL PROTEIN: 5.23 G/DL
  URIC ACID: 1.73 mg/dL
